In publication PMC12040169 (PLOS Biology, 2025):

Assay: in vitro
Conditions: human, hela cells, % viability

| Structure (SMILES) | viability at 28.5 h, 10 µM [%] | viability at 28.5 h, 10 µM (bulk resorufin, single well) [%] |
| --- | --- | --- |
| Cc1cc(/C=C(/C#N)c2nc3ccccc3[nH]2)c(C)n1-c1ccc(S(N)(=O)=O)cc1 [CBK264769] | 77.8 | – |
| CC(=O)NS(=O)(=O)c1ccc(-c2ccc(/C=C(/C#N)c3nc4ccc(C)cc4[nH]3)o2)cc1 [CBK264771] | 109 | – |
| O=[N+]([O-])c1ccc(N2CCN(S(=O)(=O)N3CCCC3)CC2)c(Cl)c1 [CBK264772] | 102 | – |
| CCN(CC)S(=O)(=O)c1ccc(OC)c(NC(=O)C2c3ccccc3Oc3ccccc32)c1 [CBK264774] | 101 | – |
| CC1(C)CC(=O)C(C(=S)Nc2ccc(F)cc2)=C(NCc2ccc3c(c2)OCO3)C1 [CBK264779] | 97.5 | – |
| O=C(O)CCc1ccc(-c2cccs2)n1NC(=O)c1sc2ccccc2c1Cl [CBK264782] | 96.1 | – |
| CCCc1cc(=O)oc2cc(OCc3ccc(C(=O)O)o3)ccc12 [CBK264786] | 108 | – |
| O=[N+]([O-])c1ccc(-c2nc(NCc3cccnc3)c3ccccc3n2)cc1 [CBK264788] | 100 | – |
| O=C(COC(=O)C1CCC(N2C(=O)c3ccccc3C2=O)CC1)c1ccc(-c2ccccc2)cc1 (stereo not drawn) [CBK264789] | 90.4 | – |
| CCOc1ccccc1-n1c(CCC(=O)O)ccc1-c1cccs1 [CBK264794] | 105 | – |
| O=[N+]([O-])c1ccccc1S(=O)(=O)Nc1ccc(S(=O)(=O)Nc2ccccc2)cc1 [CBK264796] | 106 | – |
| CCOC(=O)c1cnc2c(C)cc(Cl)cc2c1NCCN(C)C [CBK264800] | 90.7 | – |
| Cc1cc(Cl)ccc1OCC(=O)NC(=S)Nc1cccc(-c2nc3ccccc3s2)c1 [CBK264802] | 105 | – |
| Cc1ccc(NC(=O)C(=O)NCCCN2CCOCC2)cc1Cl [CBK264806] | 97.4 | – |
| COc1ccc(C(=O)COC(=O)c2cccc(N3C(=O)C4C5C=C(C)C(C5)C4C3=O)c2)cc1 (stereo not drawn) [CBK264808] | 94.1 | – |
| Cc1ccc(NS(=O)(=O)c2ccc(NC(=O)c3ccc(CN4CCOCC4)cc3)cc2)c(C)c1 [CBK264815] | 94.5 | – |
| COCCNc1nc(-c2ccc([N+](=O)[O-])cc2)nc2ccccc12 [CBK264819] | 109 | – |
| Cc1ccc(-c2ccc(CCC(=O)O)[nH]2)cc1 [CBK264820] | 109 | – |
| Cc1ccccc1OCC(O)CNC(=O)c1ccccc1C(=O)O (stereo not drawn) [CBK264824] | 94.8 | – |
| O=[N+]([O-])c1ccc(N2CCN(S(=O)(=O)c3ccc4ccccc4c3)CC2)c(C(F)(F)F)c1 [CBK264827] | 103 | – |
| O=C(Nc1cccc(NC(=S)NC(=O)c2ccc(Cl)cc2Cl)c1)c1ccccc1F [CBK264828] | 107 | – |

| Structure (SMILES) | viability at 28.5 h, 10 µM [%] | viability at 28.5 h, 10 µM (bulk resorufin, single well) [%] |
| --- | --- | --- |
| COc1ccccc1N(CC(O)CN1CCCC1)S(=O)(=O)c1ccccc1 (stereo not drawn) [CBK264829] | 114 | – |
| Cn1c(-c2c(CCC(=O)O)oc3cc(O)ccc3c2=O)nc2ccccc21 [CBK264831] | 96 | – |
| Cc1ccccc1N1CCN(C(=O)c2c(C)oc3cc4c(C(=O)N5CCN(c6ccccc6C)CC5)c(C)oc4cc23)CC1 [CBK264833] | 89.2 | – |
| NS(=O)(=O)c1ccc(NC(=O)CN2C(=O)S/C(=C\C=C\c3ccccc3)C2=O)cc1 [CBK264835] | 94.6 | – |
| Cc1ccc(NC(=O)C(=O)NCCCN2CCOCC2)cc1C [CBK264836] | 106 | – |
| O=C(O)CCSc1nc(-c2ccccc2)c(-c2ccccc2)n1-c1ccccc1 [CBK264837] | 113 | – |
| CCc1cc2c(=O)c(-c3nc(C)cs3)c(CCC(=O)O)oc2cc1O [CBK264838] | 108 | – |
| Cc1cccc(C(=O)Nc2c(C(=O)Nc3ccc(Br)cc3)cnn2-c2ccccc2)c1 [CBK264839] | 113 | – |
| CC(C)c1ccccc1OCC(=O)OCCN1C(=O)c2ccccc2C1=O [CBK264841] | 92.2 | – |
| O=C(CN(C1CCCCC1)S(=O)(=O)c1ccc(Br)cc1)NCc1ccccn1 [CBK264846] | 93.6 | – |
| [O-][n+]1cc(-c2ccccc2)[n+]([O-])c2c1CCCC2 [CBK264847] | 98.7 | – |
| Cc1cccc(C)c1NC(=O)C(=O)NCCCN1CCOCC1 [CBK264850] | 90.6 | – |
| CN1CCN(C(=O)Nc2ccc(Cc3ccc(NC(=O)N4CCN(C)CC4)cc3)cc2)CC1 [CBK264852] | 104 | – |
| Cc1cc(C)c(NC(=O)CSCC(=O)Nc2ccc3ccccc3c2)c(C)c1 [CBK264856] | 100 | – |
| O=C(CN1C(=O)C2C3c4ccccc4C(c4ccccc43)C2C1=O)OCC(=O)c1ccc(F)cc1 (stereo not drawn) [CBK264861] | 106 | – |
| COc1cccc(C2C(C(=O)c3ccc(Br)cc3)=C(O)C(=O)N2CCCN2CCOCC2)c1 (stereo not drawn) [CBK264862] | 103 | – |
| O=S(=O)(c1ccc(F)cc1)N1CCN(c2ncnc3scc(-c4ccccc4)c23)CC1 [CBK264864] | 103 | – |
| COc1ccc(C(=O)C2=C(O)C(=O)N(CCN(C)C)C2c2ccncc2)c(C)c1 (stereo not drawn) [CBK264867] | 92.5 | – |
| OCCCNC(=S)NCCc1ccccc1 [CBK264869] | 99.7 | – |
| Cc1ccc(NC(=S)NCCc2ccc(S(N)(=O)=O)cc2)c(C)c1 [CBK264870] | 93.9 | – |
| COc1cc(C2C(C(=O)c3cccs3)=C(O)C(=O)N2Cc2cccnc2)cc(OC)c1OC (stereo not drawn) [CBK264874] | 92.8 | – |

| Structure (SMILES) | viability at 28.5 h, 10 µM [%] | viability at 28.5 h, 10 µM (bulk resorufin, single well) [%] |
| --- | --- | --- |
| COCCCN1C(=O)C(O)=C(C(=O)c2ccc(C)o2)C1c1ccc(Br)cc1 (stereo not drawn) [CBK264876] | 90.9 | – |
| C=CCN1C(=O)/C(=C/c2cc(Cl)c(OCc3cccc(C(=O)O)c3)c(OC)c2)C(=O)NC1=S [CBK264877G] | – | 121 |
| Cc1cc(OCC(C)C)ccc1C(=O)C1=C(O)C(=O)N(Cc2cccnc2)C1c1cccnc1 (stereo not drawn) [CBK264883] | 97.6 | – |
| O=C(COc1ccc2ccccc2c1)Oc1ccc2ccccc2c1 [CBK264885] | 110 | – |
| CC(C)Oc1ccc(C(=O)C2=C(O)C(=O)N(CCN(C)C)C2c2ccccc2F)cc1 (stereo not drawn) [CBK264886] | 102 | – |
| Cc1cc(Cl)ccc1NC(=S)NCCc1ccc(S(N)(=O)=O)cc1 [CBK264888] | 88.5 | – |
| O=C1CC(c2ccccc2)CC(NCc2ccc3c(c2)OCO3)=C1C(=S)Nc1ccccc1 (stereo not drawn) [CBK264890] | 94.4 | – |
| COc1ccc(-n2c(SC(CN3CCCCC3)CN3CCCC3=O)nc3ccccc3c2=O)cc1 (stereo not drawn) [CBK264891C] | 87.8 | – |
| COCCCN1C(=O)C(O)=C(C(=O)c2ccc(Cl)cc2)C1c1cccc(O)c1 (stereo not drawn) [CBK264892] | 105 | – |
| CCN(CC)CCCNc1c([N+](=O)[O-])c(=O)n(C)c2ccccc12 [CBK264893] | 112 | – |
| CC(=O)Nc1sc(/C(C#N)=C/c2cccc(Oc3ccccc3)c2)nc1-c1ccc(C)cc1 [CBK264895] | 98.4 | – |
| Cc1cccc(N2C(=O)NC(=O)C(CCc3ccncc3)(CCc3ccncc3)C2=O)c1 [CBK264898] | – | 96.3 |
| COc1cccc(C2C(C(=O)c3ccc(C)o3)=C(O)C(=O)N2CCN2CCOCC2)c1 (stereo not drawn) [CBK264899] | 92.8 | – |
| COc1cccc(C2C(C(=O)c3ccc(Cl)cc3)=C(O)C(=O)N2CCN2CCOCC2)c1 (stereo not drawn) [CBK264901] | 90 | – |
| CC(C)CNC(=O)C(=O)NCCc1ccc(F)cc1 [CBK264903] | 105 | – |
| O=C(COc1ccc(Cl)cc1Cl)OCCNC1=NS(=O)(=O)c2ccccc21 [CBK264905] | 110 | – |
| CC(C)Oc1ccc(C(=O)C2=C(O)C(=O)N(CCN(C)C)C2c2ccncc2)cc1 (stereo not drawn) [CBK264907] | 90.3 | – |
| COc1cc(C(=O)Oc2cccc(Nc3ncnc4ccccc34)c2)cc(OC)c1OC [CBK264908] | 109 | – |
| O=C(NCN1CCN(c2ccc([N+](=O)[O-])cc2)CC1)c1cccnc1 [CBK264909] | 106 | – |
| Cc1cccc(CN(CC(=O)Nc2ccc3c(c2)OCCO3)S(=O)(=O)c2ccc(Cl)cc2)c1 [CBK264910] | 91.9 | – |
| O=C(O)c1ccc(N2CCN(CCO)CC2)c([N+](=O)[O-])c1 [CBK264911C] | 100 | – |

| Structure (SMILES) | viability at 28.5 h, 10 µM [%] | viability at 28.5 h, 10 µM (bulk resorufin, single well) [%] |
| --- | --- | --- |
| COc1cccc(-c2nc(SCC(=O)Nc3ccc([N+](=O)[O-])cc3)[nH]c(=O)c2C#N)c1 [CBK264912] | 105 | – |
| O=[N+]([O-])c1ccc(NC(=S)NCCCn2ccnc2)cc1 [CBK264915] | 93.3 | – |
| O=C(CSCc1ccccc1)Nc1ccc2c3c(cccc13)CC2 [CBK264916] | 107 | – |
| O=C1c2ccccc2CN1CCNS(=O)(=O)c1ccc2oc3ccccc3c2c1 [CBK264918] | 98.9 | – |
| Cc1cccc(NC(=S)N2CCN(Cc3ccc4c(c3)OCO4)CC2)c1C [CBK264919] | 82.7 | – |
| COc1cccc(C2C(C(=O)c3ccc(Br)cc3)=C(O)C(=O)N2CCCN(C)C)c1 (stereo not drawn) [CBK264921] | 84.5 | – |
| O=C(Oc1ccc(F)cc1C(=O)/C=C/c1cccs1)c1ccc([N+](=O)[O-])cc1 [CBK264925] | 91.2 | – |
| S=C(NCCc1ccccc1)NCCN1CCOCC1 [CBK264929] | 87.4 | – |
| O=C(NC(=S)Nc1ccc(-c2nc3ccccc3o2)c(O)c1)c1cncc(Br)c1 [CBK264931] | 97 | – |
| O=C(C1=C(O)C(=O)N(c2ncccn2)C1c1cccc([N+](=O)[O-])c1)c1ccc(F)cc1 (stereo not drawn) [CBK264932] | 85.2 | – |
| CCc1cccc2c(/C=C3/SC(=S)N(CC(=O)O)C3=O)c[nH]c12 [CBK264937] | 94 | – |
| Cc1[nH]nc(-c2ccc(OCc3cnn(-c4ccccc4)c3)cc2O)c1Oc1ccc(Cl)cc1 [CBK264939] | 86.8 | – |
| CCOC(=O)CC(=O)CSc1nc(N)c2c3c(sc2n1)CCCC3 [CBK264942] | 120 | – |
| O=C(NCCCNc1c(Cl)cccc1[N+](=O)[O-])c1ccc(F)cc1 [CBK264943] | 99.4 | – |
| CC(=O)Nc1ccc(S(=O)(=O)N2CCN(c3ccc([N+](=O)[O-])cc3C(F)(F)F)CC2)cc1 [CBK264944] | 112 | – |
| Cc1ccc(S(=O)(=O)NCCNc2ccc(C(F)(F)F)cc2[N+](=O)[O-])cc1 [CBK264945] | 90.4 | – |
| O=c1oc2c(CN3CCN(CCO)CC3)c(O)ccc2cc1-c1nc(-c2ccc(Br)cc2)cs1 [CBK264949] | 103 | – |
| COc1ccc(-c2nc3cc(NC(=O)c4ccccc4Br)ccc3o2)cc1 [CBK264953] | 95.5 | – |
